In US8735414B2 (priority 2009, dated 2014):

Key:
[1] = system: bicistronic HCV replicon (replicon RNA, GenBank Accession No. AJ242654); assay: HCV Replicon Assay; type: cell-based; settings: Hepatitis C virus, 72 h, read-out: Replicon IC50

| SMILES | melting point [°C] | IC50 [1] [nM] |
| --- | --- | --- |
| CC(C)(C)S(=O)(=O)Nc1ccc(-c2c(C#N)c3ccc(OC(F)F)cc3n2CC2CC2)cn1 [compound 269, N-{5-[3-cyano-1-(cyclopropylmethyl)-6-(difluoromethoxy)-1H-indol-2-yl]pyridin-2-yl}-2-methylpropane-2-sulfonamide] | 214 to 215 | 500 to 2000 |
| N#Cc1c(-c2ccc(NS(=O)(=O)C3CC3)cn2)n(CC2CC2)c2cc(OC(F)F)ccc12 [compound 270, N-{6-[3-cyano-1-(cyclopropylmethyl)-6-(difluoromethoxy)-1H-indol-2-yl]pyridin-3-yl}cyclopropanesulfonamide] | 156 to 158 | 2000 to 5000 |
| CCCS(=O)(=O)Nc1ccc(-c2c(C#N)c3ccc(Oc4ncccn4)cc3n2C2CCC2)nc1 [compound 271, N-{6-[3-cyano-1-cyclobutyl-6-(pyrimidin-2-yloxy)-1H-indol-2-yl]pyridin-3-yl}propane-1-sulfonamide] | 206 to 208 | 500 to 2000 |
| CCCS(=O)(=O)Nc1ccc(-c2c(C#N)c3ccc(Oc4ncccc4C#N)cc3n2C2CCC2)nc1 [compound 272, N-(6-{3-cyano-6-[(3-cyanopyridin-2-yl)oxy]-1-cyclobutyl-1H-indol-2-yl}pyridin-3-yl)propane-1-sulfonamide] | 199 to 201 | 500 to 2000 |
| CCCS(=O)(=O)Nc1ccc(-c2c(C#N)c3ccc(Oc4nccnc4C#N)cc3n2C2CCC2)nc1 [compound 273, N-(6-{3-cyano-6-[(3-cyanopyrazin-2-yl)oxy]-1-cyclobutyl-1H-indol-2-yl}pyridin-3-yl)propane-1-sulfonamide] | 252 to 254 | < 500 |
| CC(C)Oc1ccc2c(C#N)c(-c3ccc(NS(=O)(=O)C4CC4)nn3)n(C3CCC3)c2c1 [compound 274, N-{6-[3-cyano-1-cyclobutyl-6-(propan-2-yloxy)-1H-indol-2-yl]pyridazin-3-yl}cyclopropanesulfonamide] | 175 to 177 | 2000 to 5000 |
| CC(C)Oc1ccc2c(C#N)c(-c3ccc(NS(C)(=O)=O)nn3)n(C3CCC3)c2c1 [compound 275, N-{6-[3-cyano-1-cyclobutyl-6-(propan-2-yloxy)-1H-indol-2-yl]pyridazin-3-yl}methanesulfonamide] | 225 to 227 | 2000 to 5000 |
| CCS(=O)(=O)Nc1ccc(-c2c(C#N)c3ccc(OC(C)C)cc3n2C2CCC2)nn1 [compound 276, N-{6-[3-cyano-1-cyclobutyl-6-(propan-2-yloxy)-1H-indol-2-yl]pyridazin-3-yl}ethanesulfonamide] | 181 to 183 | 2000 to 5000 |
| CCS(=O)(=O)Nc1ccc(-c2c(C#N)c3ccc(OC)cc3n2C2CCC2)nn1 [compound 277, N-[6-(3-cyano-1-cyclobutyl-6-methoxy-1H-indol-2-yl)pyridazin-3-yl]ethanesulfonamide] | 212 to 214 | < 500 |
| COc1ccc2c(C#N)c(-c3ccc(NS(=O)(=O)C(C)(C)C)nn3)n(C3CCC3)c2c1 [compound 278, N-[6-(3-cyano-1-cyclobutyl-6-methoxy-1H-indol-2-yl)pyridazin-3-yl]-2-methylpropane-2-sulfonamide] | 218 to 220 | 500 to 2000 |
| CCS(=O)(=O)Nc1ccc(-c2c(C#N)c3ccc(OC(C)C)cc3n2CC2CC2)nc1 [compound 279, N-{6-[3-cyano-1-(cyclopropylmethyl)-6-(propan-2-yloxy)-1H-indol-2-yl]pyridin-3-yl}ethanesulfonamide] | 149 to 154 | 500 to 2000 |
| CC(C)Oc1ccc2c(C#N)c(-c3ccc(NS(=O)(=O)C4CC4)cn3)n(CC3CC3)c2c1 [compound 280, N-{6-[3-cyano-1-(cyclopropylmethyl)-6-(propan-2-yloxy)-1H-indol-2-yl]pyridin-3-yl}cyclopropanesulfonamide] | 150 to 155 | 500 to 2000 |
| CC(C)Oc1ccc2c(C#N)c(-c3ccc(NS(=O)(=O)C(C)C)cn3)n(CC3CC3)c2c1 [compound 281, N-{6-[3-cyano-1-(cyclopropylmethyl)-6-(propan-2-yloxy)-1H-indol-2-yl]pyridin-3-yl}propane-2-sulfonamide] | 168 to 172 | 500 to 2000 |
| CCn1c(-c2ccc(N(C(C)C)S(=O)(=O)CC)cn2)c(C#N)c2ccc(OC(C)C)cc21 [compound 282, N-{6-[3-cyano-1-ethyl-6-(propan-2-yloxy)-1H-indol-2-yl]pyridin-3-yl}-N-(propan-2-yl)ethanesulfonamide] | 170 to 175 | 500 to 2000 |
| CC(C)S(=O)(=O)Nc1ccc(-c2c(C#N)c3ccc(OCC(F)(F)F)cc3n2CC2CC2)nc1 [compound 283, N-{6-[3-cyano-1-(cyclopropylmethyl)-6-(2,2,2-trifluoroethoxy)-1H-indol-2-yl]pyridin-3-yl}propane-2-sulfonamide] | 188 to 193 | 2000 to 5000 |
| CCS(=O)(=O)Nc1ccc(-c2c(C#N)c3ccc(OCC(F)(F)F)cc3n2CC2CC2)nc1 [compound 284, N-{6-[3-cyano-1-(cyclopropylmethyl)-6-(2,2,2-trifluoroethoxy)-1H-indol-2-yl]pyridin-3-yl}ethanesulfonamide] | 190 to 195 | 500 to 2000 |

| SMILES | melting point [°C] | IC50 [1] [nM] |
| --- | --- | --- |
| CCn1c(-c2ccc(NS(=O)(=O)C3CC3)cn2)c(C#N)c2ccc(OC(C)C)cc21 [compound 285, N-{6-[3-cyano-1-ethyl-6-(propan-2-yloxy)-1H-indol-2-yl]pyridin-3-yl}cyclopropanesulfonamide] | 180 to 185 | 500 to 2000 |
| CCn1c(-c2ccc(NS(=O)(=O)C(C)C)cn2)c(C#N)c2ccc(OC(C)C)cc21 [compound 286, N-{6-[3-cyano-1-ethyl-6-(propan-2-yloxy)-1H-indol-2-yl]pyridin-3-yl}propane-2-sulfonamide] | 180 to 185 | 500 to 2000 |
| CS(=O)(=O)Nc1ccc(-c2c(C#N)c3ccc(C4CC4)cc3n2C2CCC2)cn1 [compound 287, N-[5-(3-cyano-1-cyclobutyl-6-cyclopropyl-1H-indol-2-yl)pyridin-2-yl]methanesulfonamide] | 239 to 241 | 500 to 2000 |
| CCS(=O)(=O)Nc1ccc(-c2c(C#N)c3ccc(C4CC4)cc3n2C2CCC2)cn1 [compound 288, N-[5-(3-cyano-1-cyclobutyl-6-cyclopropyl-1H-indol-2-yl)pyridin-2-yl]ethanesulfonamide] | 241 to 243 | 500 to 2000 |
| CC(C)S(=O)(=O)Nc1ccc(-c2c(C#N)c3ccc(C4CC4)cc3n2C2CCC2)cn1 [compound 289, N-[5-(3-cyano-1-cyclobutyl-6-cyclopropyl-1H-indol-2-yl)pyridin-2-yl]propane-2-sulfonamide] | 226 to 228 | 500 to 2000 |
| CCn1c(-c2ccc(N(CC(F)F)S(=O)(=O)C3CC3)nc2)c(C#N)c2ccc(OC(C)C)cc21 [compound 292, N-{5-[3-cyano-1-ethyl-6-(propan-2-yloxy)-1H-indol-2-yl]pyridin-2-yl}-N-(2,2-difluoroethyl)cyclopropanesulfonamide] | 232 to 235 | 500 to 2000 |
| CCn1c(-c2ccc(N(CCO)S(=O)(=O)C3CC3)nc2)c(C#N)c2ccc(OC(C)C)cc21 [compound 293, N-{5-[3-cyano-1-ethyl-6-(propan-2-yloxy)-1H-indol-2-yl]pyridin-2-yl}-N-(2-hydroxyethyl)cyclopropanesulfonamide] | 212 to 214 | 500 to 2000 |
| CCn1c(-c2ccc(N(CC#N)S(=O)(=O)C3CC3)nc2)c(C#N)c2ccc(OC(C)C)cc21 [compound 294, N-{5-[3-cyano-1-ethyl-6-(propan-2-yloxy)-1H-indol-2-yl]pyridin-2-yl}-N-(cyanomethyl)cyclopropanesulfonamide] | 236 to 238 | 500 to 2000 |
| CC(C)(C)S(=O)(=O)Nc1ccc(-c2c(C#N)c3ccc(OC(F)F)cc3n2C2CCC2)cn1 [compound 295, N-{5-[3-cyano-1-cyclobutyl-6-(difluoromethoxy)-1H-indol-2-yl]pyridin-2-yl}-2-methylpropane-2-sulfonamide] | 239 to 240 | 2000 to 5000 |
| Cc1ccc2c(C#N)c(-c3ccc(NS(=O)(=O)C4CC4)cn3)n(C3CCCC3)c2c1 [compound 296, N-[6-(3-cyano-1-cyclopentyl-6-methyl-1H-indol-2-yl)pyridin-3-yl]cyclopropanesulfonamide] | 241 to 245 | 2000 to 5000 |
| Cc1ccc2c(C#N)c(-c3ccc(NS(=O)(=O)C4CC4)cn3)n(C3CCC3)c2c1 [compound 297, N-[6-(3-cyano-1-cyclobutyl-6-methyl-1H-indol-2-yl)pyridin-3-yl]cyclopropanesulfonamide] | 200 to 205 | 500 to 2000 |
| N#Cc1c(-c2ccc(NS(=O)(=O)C3CC3)cn2)n(C2CCCCC2)c2ccc(Cl)cc12 [compound 298, N-[6-(5-chloro-3-cyano-1-cyclohexyl-1H-indol-2-yl)pyridin-3-yl]cyclopropanesulfonamide] | 230 to 235 | 500 to 2000 |
| CC(C)n1c(-c2ccc(NS(=O)(=O)C(C)(C)C)nc2)c(C#N)c2ccc(OC(F)F)cc21 [compound 299, N-{5-[3-cyano-6-(difluoromethoxy)-1-(propan-2-yl)-1H-indol-2-yl]pyridin-2-yl}-2-methylpropane-2-sulfonamide] | 263 to 264 | 2000 to 5000 |
| N#Cc1c(-c2ncc(S(=O)(=O)NC(CF)CF)cn2)n(CC2CC2)c2ccc(F)cc12 [compound 302, 2-[3-cyano-1-(cyclopropylmethyl)-5-fluoro-1H-indol-2-yl]-N-(1,3-difluoropropan-2-yl)pyrimidine-5-sulfonamide] | 216 to 221 | < 500 |
| CC(C)NS(=O)(=O)c1cnc(-c2c(C#N)c3cc(F)ccc3n2CC2CC2)nc1 [compound 303, 2-[3-cyano-1-(cyclopropylmethyl)-5-fluoro-1H-indol-2-yl]-N-(propan-2-yl)pyrimidine-5-sulfonamide] | 215 to 220 | < 500 |
